The assay deals with STAT3 (Homo sapiens, UniProt P40763). Kind of assay: STAT3 HiBiT degradation assay in transfected A549 cells. Set-up: expressed in transfected cells; host or cells: A549. The assay is classed as cell-based. The gist of the method:
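Degradation read as HiBiT-tagged STAT3 luminescence (Nano-Glo lytic reagent, 10 min, room temperature) following 24 h compound treatment of transfected A549 cells at 3-fold, 10 points. Percent remaining signal computed against controls and fitted with a four-parameter logistic; DC50 reported as letter bins (A <0.01 to D >1.0 µM).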
A general note: The HiBiT peptide binds its large partner to form an active luciferase.

The mark [1] stands for this setting: read-out: STAT3 HiBiT A549 degradation 24 h: Average external-Abs DC50; A549, 24 h.
[2] abbreviates: A549, 24 h; read-out: STAT3 HiBiT A549 degradation 24 h: Average external-Abs DC50.

Where two headings read alike, the source gives them in different places.

In general, DC50 refers to the concentration giving 50% degradation.

STAT3, sequence (P40763 whole entry): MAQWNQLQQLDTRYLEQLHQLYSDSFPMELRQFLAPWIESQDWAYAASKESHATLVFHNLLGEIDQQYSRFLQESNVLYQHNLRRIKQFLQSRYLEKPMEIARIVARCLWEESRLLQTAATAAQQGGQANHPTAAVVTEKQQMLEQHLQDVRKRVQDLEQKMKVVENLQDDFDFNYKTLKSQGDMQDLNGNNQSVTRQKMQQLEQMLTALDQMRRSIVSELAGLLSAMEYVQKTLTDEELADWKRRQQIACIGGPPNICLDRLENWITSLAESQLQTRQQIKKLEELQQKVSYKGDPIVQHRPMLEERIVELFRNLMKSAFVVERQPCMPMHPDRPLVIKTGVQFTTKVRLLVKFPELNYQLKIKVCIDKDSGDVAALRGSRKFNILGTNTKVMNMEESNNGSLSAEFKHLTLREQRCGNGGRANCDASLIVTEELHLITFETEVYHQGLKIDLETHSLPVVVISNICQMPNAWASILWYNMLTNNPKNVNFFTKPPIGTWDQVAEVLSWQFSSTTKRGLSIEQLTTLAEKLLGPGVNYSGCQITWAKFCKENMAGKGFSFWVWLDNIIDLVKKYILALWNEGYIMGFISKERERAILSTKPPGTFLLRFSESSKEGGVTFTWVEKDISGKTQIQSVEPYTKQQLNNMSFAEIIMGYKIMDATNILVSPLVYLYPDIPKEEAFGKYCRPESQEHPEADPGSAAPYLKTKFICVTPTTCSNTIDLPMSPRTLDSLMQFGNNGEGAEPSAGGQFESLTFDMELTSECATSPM

As for `Cn1c(=O)n(C2CCC(=O)NC2=O)c2ccc(CCc3ccccc3CCC(=O)N3CC[C@H]4CC[C@@H](C(=O)N[C@@H](CCC(N)=O)C(=O)NC(c5ccccc5)c5ccccc5)N4C(=O)[C@@H](NC(=O)c4cc5cc(C(=O)P(=O)(O)O)ccc5[nH]4)C3)cc21` (stereo partly drawn) [Compound I-156, diammonium 2-[[(5S,8S,10aR)-8-[[(1S)-3-carbamoyl-1-(diphenylmethylcarbamoyl)propyl]carbamoyl]-3-[3-(2-[2-[1-(2,6-dioxopiperidin-3-yl)-3-methyl-2-oxo-1,3-benzodiazol-5-yl]ethyl]phenyl)propanoyl]-6-oxo-octahydropyrrolo[1,2-a][1,5]diazocin-5-yl]carbamoyl]-1H-indole-5-carbonylphosphonate], the half-maximal degradation concentration (DC50) under setting [1] lay within 100 to 1000 nM.
As for `Cc1ncsc1-c1ccc([C@H](C)NC(=O)[C@@H]2C[C@@H](O)CN2C(=O)[C@@H](NC(=O)CCCCCc2cccc(NC(=O)[C@H](CCC(N)=O)NC(=O)[C@@H]3Cc4cccc5c4N3C(=O)[C@@H](NC(=O)c3cc4cc(C(=O)P(=O)(O)O)ccc4[nH]3)CC5)c2Cl)C(C)(C)C)cc1` [Compound I-249, 2-[[(2S,11S)-2-[[(1S)-3-carbamoyl-1-[[2-chloro-3-(5-[[(2S)-1-[(2S,4R)-4-hydroxy-2-[[(1S)-1-[4-(4-methyl-1,3-thiazol-5-yl)phenyl]ethyl]carbamoyl]pyrrolidin-1-yl]-3,3-dimethyl-1-oxobutan-2-yl]carbamoyl]pentyl)phenyl]carbamoyl]propyl]carbamoyl]-12-oxo-1-azatricyclo[6.4.1.0^[4,13]]trideca-4(13),5,7-trien-11-yl]carbamoyl]-1H-indole-5-carbonylphosphonic acid], the DC50 under setting [2] lay within 10 to 100 nM.
The same measure, in the same setting: in the case of `Cc1ncsc1-c1ccc([C@H](C)NC(=O)[C@@H]2C[C@@H](O)CC2C(=O)[C@@H](NC(=O)OCCCCc2cccc(N(C)CC(CCC(N)=O)NC(=O)[C@@H]3Cc4cccc5c4N3C(=O)[C@@H](NC(=O)c3cc4cc(C(=O)P(=O)(O)O)ccc4[nH]3)CC5)c2F)C(C)(C)C)cc1` (stereo partly shown) [Compound I-254] it was 100 to 1000 nM; in that of `Cc1ncsc1-c1ccc(CNC(=O)[C@@H]2C[C@@H](O)CN2C(=O)[C@@H](NC(=O)CCCCCCCC(=O)N2CC[C@H]3CC[C@@H](C(=O)N[C@@H](CCC(N)=O)C(=O)NC(c4ccccc4)c4ccccc4)N3C(=O)[C@@H](NC(=O)c3cc4cc(C(=O)P(=O)(O)O)ccc4[nH]3)C2)C(C)(C)C)cc1` [Compound I-147], more than 1000 nM; in that of `CC(=O)N1CC[C@H]2CC[C@@H](C(=O)N[C@@H](CCC(N)=O)COc3cccc(CCCC(=O)N[C@H](C(=O)N4C[C@H](O)C[C@H]4C(=O)N[C@@H](C)c4ccc(-c5scnc5C)cc4)C(C)(C)C)c3F)N2C(=O)[C@@H](NC(=O)c2cc3cc(C(=O)P(=O)(O)O)ccc3[nH]2)C1` [Compound I-231, diammonium 2-[[(5S,8S,10aR)-3-acetyl-8-[[(2S)-4-carbamoyl-1-[2-fluoro-3-(3[[(2S)-1-[(2S,4R)-4-hydroxy-2-[[(1S)-1-[4-(4-methyl-1,3-thiazo1-5-yl)phenyl]ethyl]carbamoyl]pyrrolidin-1-yl]-3,3-dimethyl-1-oxobutan-2-yl]carbamoyl]propyl)phenoxy]butan-2-yl]carbamoyl]-6-oxo-octahydropyrrolo[1,2-a][1,5]diazocin-5-yl]carbamoyl]-1H-indole-5-carbonylphosphonate], 10 to 100 nM.
As to `Cc1ncsc1-c1ccc(CNC(=O)[C@@H]2C[C@@H](O)CC2C(=O)[C@@H](NC(=O)CC/C=C/c2ccc(CO[C@H](C)[C@H](CCC(N)=O)NC(=O)[C@@H]3Cc4cccc5c4N3C(=O)[C@@H](NC(=O)c3cc4cc(C(=O)P(=O)(O)O)ccc4[nH]3)CC5)cc2)C(C)(C)C)cc1` (stereo partly drawn) [Compound I-130, diammonium 2-[[(2S,11S)-2-[[(3S,4R)-1-carbamoyl-4-([4-[(1E)-4-[[(2S)-1-[(2S,4R)-4-hydroxy-2-([[4-(4-methyl-1,3-thiazol-5-yl)phenyl]methyl]carbamoyl)pyrrolidin-1-yl]-3,3-dimethyl-1-oxobutan-2-yl]carbamoyl]but-1-en-1-yl]phenyl]methoxy)pentan-3-yl]carbamoyl]-12-oxo-1-azatricyclo[6.4.1.0^[4,13]]trideca-4(13),5,7-trien-11-yl]carbamoyl]-1H-indole-5-carbonylphosphonate], under setting [2], the DC50 was more than 1000 nM.
On the same count and under the same terms, in the case of `CC(=O)N1CC[C@H]2CC[C@@H](C(=O)N[C@@H](CCC(N)=O)C(=O)NCCCCCCCC(=O)N[C@H](C(=O)N3C[C@H](O)C[C@H]3C(=O)NCc3ccc(-c4scnc4C)cc3)C(C)(C)C)N2C(=O)[C@@H](NC(=O)c2cc3cc(C(=O)P(=O)(O)O)ccc3[nH]2)C1` [Compound I-172, 2-[[(5S,8S,10aR)-3-acetyl-8-[[(1S)-3-carbamoyl-1-[(7-[[(2S)-1-[(2S,4R)-4-hydroxy-2-([[4-(4-methyl-1,3-thiazol-5-yl)phenyl]methyl]carbamoyl)pyrrolidin-1-yl]-3,3-dimethyl-1-oxobutan-2-yl]carbamoyl]heptyl)carbamoyl]propyl]carbamoyl]-6-oxo-octahydropyrrolo[1,2-a][1,5]diazocin-5-yl]carbamoyl]-1H-indole-5-carbonylphosphonic acid] it was more than 1000 nM; in that of `Cn1c(=O)n(C2CCC(=O)NC2=O)c2ccc(C3CCN(CCCC(=O)N4CC[C@H]5CC[C@@H](C(=O)N[C@@H](CCC(N)=O)C(=O)NC(c6ccccc6)c6ccccc6)N5C(=O)[C@@H](NC(=O)c5cc6cc(C(=O)P(=O)(O)O)ccc6[nH]5)C4)CC3)cc21` (stereo partly drawn) [Compound I-169, 2-[[(5S,8S,10aR)-8-[[(1S)-3-carbamoyl-1-(diphenylmethylcarbamoyl)propyl]carbamoyl]-3-(4-[4-[1-(2,6-dioxopiperidin-3-yl)-3-methyl-2-oxo-1,3-benzodiazol-5-yl]piperidin-1-yl]butanoyl)-6-oxo-octahydropyrrolo[1,2-a][1,5]diazocin-5-yl]carbamoyl]-1H-indole-5-carbonylphosphonic acid], 100 to 1000 nM.
With `Cc1ncsc1-c1ccc(CNC(=O)[C@@H]2C[C@@H](O)CN2C(=O)[C@@H](NC(=O)CCC/C=C/c2ccc(CO[C@H](C)[C@H](CCC(N)=O)NC(=O)[C@@H]3Cc4cccc5c4N3C(=O)[C@@H](NC(=O)c3cc4cc(C(=O)P(=O)(O)O)ccc4[nH]3)CC5)cc2)C(C)(C)C)cc1` [Compound I-129, diammonium 2-[[(2S,11S)-2-[[(3S,4R)-1-carbamoyl-4-([4-[(1E)-5-[[(2S)-1-[(2S,4R)-4-hydroxy-2-([[4-(4-methyl-1,3-thiazol-5-yl)phenyl]methyl]carbamoyl)pyrrolidin-1-yl]-3,3-dimethyl-1-oxobutan-2-yl]carbamoyl]pent-1-en-l-yl]phenyl]methoxy)pentan-3-yl]carbamoyl]-12-oxo-1-azatricyclo[6.4.1.0^[4,13]]trideca-4(13),5,7-trien-11-yl]carbamoyl]-1H-indole-5-carbonylphosphonate], under setting [2], the half-maximal degradation concentration (DC50) lay within 100 to 1000 nM.
Consider `Cc1ncsc1-c1ccc([C@H](C)NC(=O)[C@@H]2C[C@@H](O)CN2C(=O)[C@@H](NC(=O)CCCc2cccc(NC(=O)[C@H](CCC(N)=O)NC(=O)[C@@H]3Cc4cccc5c4N3C(=O)[C@@H](NC(=O)c3cc4cc(C(=O)P(=O)(O)O)ccc4[nH]3)CC5)c2)C(C)(C)C)cc1` [Compound I-248], for which, under setting [2], the DC50 fell in the range of 10 to 100 nM.
As for `Cc1ncsc1-c1ccc(CNC(=O)[C@@H]2C[C@@H](O)CN2C(=O)[C@@H](NC(=O)CCCCCCCCCOC[C@H](CCC(N)=O)NC(=O)[C@@H]2Cc3cccc4c3N2C(=O)[C@@H](NC(=O)c2cc3cc(C(=O)P(=O)(O)O)ccc3[nH]2)CC4)C(C)(C)C)cc1` [Compound I-153, 2-[[(2S,11S)-2-[[(2S)-4-carbamoyl-1-[(9-[[(2S)-1-[(2S,4R)-4-hydroxy-2-([[4-(4-methyl-1,3-thiazol-5-yl)phenyl]methyl]carbamoyl)pyrrolidin-1-yl]-3,3-dimethyl-1-oxobutan-2-yl]carbamoyl]nonyl)oxy]butan-2-yl]carbamoyl]-12-oxo-1-azatricyclo[6.4.1.0^[4,13]]trideca-4(13),5,7-trien-11-yl]carbamoyl]-1H-indole-5-carbonylphosphonic acid], the DC50 under setting [2] is more than 1000 nM.
Regarding `Cn1c(=O)n(C2CCC(=O)NC2=O)c2cc(CCCCCCC(=O)N3CC[C@H]4CC[C@@H](C(=O)N[C@@H](CCC(N)=O)C(=O)NC(c5ccccc5)c5ccccc5)N4C(=O)[C@@H](NC(=O)c4cc5cc(C(=O)P(=O)(O)O)ccc5[nH]4)C3)ccc21` (stereo partly drawn) [Compound I-134, 2-[[(5S,8S,10aR)-8-[[(1S)-3-carbamoyl-1-(diphenylmethylcarbamoyl)propyl]carbamoyl]-3-[7-[3-(2,6-dioxopiperidin-3-yl)-1-methyl-2-oxo-1,3-benzodiazol-5-yl]heptanoyl]-6-oxo-octahydropyrrolo[1,2-a][1,5]diazocin-5-yl]carbamoyl]-1H-indole-5-carbonylphosphonic acid], under setting [1], the DC50 is more than 1000 nM.
Regarding `Cc1cc(CCCCCC(=O)N[C@H](C(=O)N2C[C@H](O)C[C@H]2C(=O)N[C@@H](C)c2ccc(-c3scnc3C)cc2)C(C)(C)C)cc(NC(=O)[C@H](CCC(N)=O)NC(=O)[C@@H]2Cc3cccc4c3N2C(=O)[C@@H](NC(=O)c2cc3cc(C(=O)P(=O)(O)O)ccc3[nH]2)CC4)c1` [Compound I-258, 2-[[(2S,11S)-2-[[(1S)-3-carbamoyl-1-[[3-(5-[[(2S)-1-[(2S,4R)-4-hydroxy-2-[[(1S)-1-[4-(4-methyl-1,3-thiazol-5-yl)phenyl]ethyl]carbamoyl]pyrrolidin-1-yl]-3,3-dimethyl-1-oxobutan-2-yl]carbamoyl]pentyl)-5-methylphenyl]carbamoyl]propyl]carbamoyl]-12-oxo-1-azatricyclo[6.4.1.0^[4,13]]trideca-4(13),5,7-trien-11-yl]carbamoyl]-1H-indole-5-carbonylphosphonic acid], the 50% degradation concentration (DC50) under setting [2] was less than 10 nM.

Source of the values: patent US12077555B2, “STAT degraders and uses thereof” (Kymera Therapeutics, Inc., priority 2019, dated 2024).
